# Measurements reported in patent US9527857B2, “HSPC-sparing treatments for RB-positive abnormal cellular proliferation” (G1 Therapeutics, Inc., priority 2013, dated 2016).
# Columns and labels:
# [1] = system: MCF7 (breast adenocarcinoma, Rb-positive); assay: Cellular proliferation assay (CellTiter-Glo), MCF7; assay type: cell-based
# Experimental: The MCF7 cells were seeded in Costar (Tewksbury, Mass.) 3903 96 well tissue culture treated white walled/clear bottom plates. A nine point dose response dilution series from 10 uM to 1 nM was performed and cell viability was determined after six days of compound treatment as indicated using the CellTiter-Glo® luminescent cell viability assay (CTG; Promega, Madison, Wis., United States of America) following the manufacturer's recommendations. Plates were read on a BioTek (Winooski, Vt.) Syngergy2 multi-mode plate reader. The Relative Light Units (RLU) were plotted as a result of variable molar concentration and data was analyzed using Graphpad (LaJolla, Calif.) Prism 5 statistical software to determine the EC50 for each compound.
# (§1) Cellular proliferation assays were conducted using the following cancer cell lines: MCF7 (breast adenocarcinoma—Rb-positive), ZR-75-1 (breast ductal carcinoma—Rb-positive), H69 (human small cell lung cancer—Rb-negative) cells, or A2058 (human metastatic melanoma cells—Rb-negative). These cells were seeded in Costar (Tewksbury, Mass.) […] 96 well tissue culture treated white walled/clear bottom plates. Cells were treated with the compounds of Table 1 as nine point dose response dilution series from 10 uM to 1 nM. Cells were exposed to compounds and then cell viability was determined after either four (H69) or six (MCF7, ZR75-1, A2058) days as indicated using the CellTiter-Glo® luminescent cell viability assay (CTG; Promega, Madison, Wis., United States of America) following the manufacturer's recommendations. Plates were read on BioTek (Winooski, Vt.) Syngergy2 multi-mode plate reader. The Relative Light Units (RLU) were plotted as a result of variable molar concentration and data was analyzed using Graphpad (LaJolla, Calif.) Prism 5 statistical software to determine the EC50 for each compound.
# CDK4/CyclinD1 = CDK4/CyclinD1 (Homo sapiens (Human), UniProt P11802); assay: CDK4/cyclinD1 kinase assay (Nanosyn, microfluidic Caliper platform); assay type: biochemical; conditions: ATP at Km (200 uM); read-out: CDK4/CycD1 IC50
# Experimental: (§2) Selected compounds disclosed herein were tested in CDK4/cyclinD1, CDK2/CycA and CDK2/cyclinE kinase assays by Nanosyn (Santa Clara, Calif.) to determine their inhibitory effect on these CDKs. The assays were performed using microfluidic kinase detection technology (Caliper Assay Platform). The compounds were tested in 12-point dose-response format in singlicate at Km for ATP. Phosphoacceptor substrate peptide concentration used was 1 μM for all assays and Staurosporine was used as the reference compound for all assays. Specifics of each assay are as described below:
# CDK4/CyclinD1: Enzyme concentration: 1 nM; ATP concentration: 200 μM; Incubation time: 10 hr.
# [2] = system: ZR-75-1 (breast ductal carcinoma, Rb-positive); assay: Cellular proliferation assay (CellTiter-Glo), ZR-75-1; assay type: cell-based
# Experimental: as §1
# CDK2/CyclinA = CDK2/CyclinA (Homo sapiens (Human), UniProt P24941); assay: CDK2/CycA kinase assay (Nanosyn, microfluidic Caliper platform); assay type: biochemical
# Experimental: as §2
# CDK2/CyclinA: Enzyme concentration: 0.2 nM; ATP concentration: 50 μM; Incubation time: 3 hr.
# CDK2/CyclinE = CDK2/CyclinE (Homo sapiens (Human), UniProt P24941); assay: CDK2/cyclinE kinase assay (Nanosyn, microfluidic Caliper platform); assay type: biochemical
# Experimental: as §2, with “assays.” for “assays. Specifics of each assay are as described below:”
# [3] = Mouse pharmacokinetics (oral gavage / intravenous); assay type: in vivo, mice; conditions: plasma, 30 mg/kg, read-out: F (oral bioavailability)
# Experimental: Blood samples were taken at 0, 0.25, 0.5, 1.0, 2.0, 4.0, and 8.0 hours post dosing and the plasma concentrations were determined by HPLC.
# HSPCs (LKS+) = assay: Bone marrow HSPC proliferation by EdU incorporation and flow cytometry; assay type: in vivo; conditions: 150 mg/kg oral gavage, mice
# Experimental: . JCNI 2012; 104(6):476-487 (FIG. 2A). […].
# Mice were then sacrificed at the indicated times (0, 12, 24, 36, or 48 hours following compound administration), and bone marrow was harvested (n=3 mice per time point), as previously described (Johnson et al. J. Clin. Invest. (2010) 120(7), 2528-2536). Four hours before the bone marrow was harvested, mice were treated with 100 μg of EdU by intraperitoneal injection (Invitrogen). Bone marrow mononuclear cells were harvested and immunophenotyped using previously described methods and percent EdU positive cells were then determined (Johnson et al. J. Clin. Invest. (2010) 120(7), 2528-2536). In brief, HSPCs were identified by expression of lineage markers (Lin−), Sca1 (S+), and c-Kit (K+).
# Four hours before animals were sacrificed and the bone marrow was harvested, mice were treated with 100 μg of EdU by intraperitoneal injection. Three mice per group were sacrificed at 12 hours and the remaining three animals per group were sacrificed at 24 hours. Results are shown in FIG. 5A as the ratio of EdU positive cells for treated animals at 12 or 24 hour time points compared to control.
# Further experiments were completed with Compound T examining dose response and longer periods of compound treatment. […] […].
# Both compounds were administered at 150 mg/kg by oral gavage. One hour prior to harvesting bone marrow, EdU was IP injected to label cycling cells. Bone marrow was harvested at 12, 24, 36, and 48 hours after compound treatment and the percentage of EdU positive HSPC cells was determined at each time point.
# [4] = system: MMTV-c-neu (Rb-positive) tumors; assay: MMTV-c-neu HER2-driven (Rb-positive) luminal breast cancer mouse model; assay type: in vivo, mice
# From the text: A HER2-driven model (Rb-positive) of breast cancer (Muller W J, Sinn E, Pattengale P K, Wallace R, Leder P. Single-step induction of mammary adenocarcinoma in transgenic mice bearing the activated c-neu oncogene. Cell 1988; 54: 105-15), that expresses c-neu (the mouse ortholog of human HER2) driven by the MMTV promoter was used in the following example. This model was chosen because previous studies in murine (Yu Q, Geng Y, Sicinski P. Specific protection against breast cancers by cyclin D1 ablation. Nature 2001; 411: 1017-21; Landis M W, Pawlyk B S, Li T, Sicinski P, Hinds P W. Cyclin D1-dependent kinase activity in murine development and mammary tumorigenesis. Cancer Cell 2006; 9: 13-22; Reddy H K, Mettus R V, Rane S G, Grana X, Litvin J, Reddy E P. Cyclin-dependent kinase 4 expression is essential for neu-induced breast tumorigenesis. Cancer Res 2005; 65: 10174-8; Yu Q, Sicinska E, Geng Y, Ahnstrom M, Zagozdzon A, Kong Y, et al. Requirement for CDK4 kinase function in breast cancer. Cancer Cell 2006; 9: 23-32.) and human HER2-positive breast cancer (An H X, Beckmann M W, Reifenberger G, Bender H G, Niederacher D. Gene amplification and overexpression of CDK4 in sporadic breast carcinomas is associated with high tumor cell proliferation. Am J Pathol 1999; 154: 113-8; Samady L, Dennis J, Budhram-Mahadeo V, Latchman DS. Activation of CDK4 gene expression in human breast cancer cells by the Brn-3b POU family transcription factor. Cancer Biol Ther 2004; 3: 317-23; Takano Y, Takenaka H, Kato Y, Masuda M, Mikami T, Saegusa M, et al. Cyclin D1 overexpression in invasive breast cancers: correlation with cyclin-dependent kinase 4 and oestrogen receptor overexpression, and lack of correlation with mitotic activity.
# MMTV-neu mice were generated and observed post-lactation, with tumors observed with a median latency of approximately 25 weeks. Mice were enrolled in therapy studies when tumors reached a standard size (50-60 mm3) that permitted easy serial assessment. […] Tumor volumes were calculated by the formula, Volume=[(width)^2×length]/2. Tumor-bearing mice were euthanized at the indicated times due to predefined morbidity, tumor ulceration, or a tumor size of more than 1.5 cm in diameter.
# Tumors were serially assessed weekly using caliper measurements. Therapeutic intervention began once tumors reached 40-64 mm^3. Tumor volume was calculated using the formula […]. All three compounds were administered orally via medicated diets (100 mg/kg/d). Medicated diets were administered for 28 consecutive days and then stopped. RECIST criteria were used to assess objective response rates.
# CDK4/CyclinD1, sequence (P11802 whole entry, species assumed): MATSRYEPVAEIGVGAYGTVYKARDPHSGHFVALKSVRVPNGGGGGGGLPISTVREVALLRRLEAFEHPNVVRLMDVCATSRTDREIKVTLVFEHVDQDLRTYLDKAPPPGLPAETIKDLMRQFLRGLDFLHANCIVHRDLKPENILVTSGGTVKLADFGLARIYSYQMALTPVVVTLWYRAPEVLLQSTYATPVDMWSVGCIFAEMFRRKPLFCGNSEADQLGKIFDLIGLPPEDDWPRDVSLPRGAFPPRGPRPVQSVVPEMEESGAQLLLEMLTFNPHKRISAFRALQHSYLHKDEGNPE
# CDK4/CyclinD1, sequence (P24385 whole entry partner, species assumed): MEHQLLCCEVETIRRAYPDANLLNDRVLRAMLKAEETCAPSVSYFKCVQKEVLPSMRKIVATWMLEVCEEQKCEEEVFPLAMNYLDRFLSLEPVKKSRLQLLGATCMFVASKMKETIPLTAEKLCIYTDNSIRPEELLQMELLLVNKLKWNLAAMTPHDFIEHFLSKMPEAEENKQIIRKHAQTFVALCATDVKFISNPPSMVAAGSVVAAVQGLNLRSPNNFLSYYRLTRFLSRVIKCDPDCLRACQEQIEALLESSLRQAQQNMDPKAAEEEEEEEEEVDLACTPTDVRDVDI
compound,measurement,setting,value
CN1CCN(C(=O)c2ccc(Nc3ncc4cc5n(c4n3)C3(CCCC3)CNC5=O)nc2)CC1 [BBB],EC50,"[1]; Homo sapiens, MCF7, 144 h, six days",123 nM
CC(C)(O)CN1CCN(c2ccc(Nc3ncc4cc5n(c4n3)C3(CCCC3)CNC5=O)nc2)CC1 [EEE],IC50,CDK4/CyclinD1,0.2 nM
CC1(C)CN(c2ccc(Nc3ncc4cc5n(c4n3)C3(CCCCC3)CNC5=O)nc2)CCN1CC1CC1 [H],inhibition of cellular proliferation of ZR75-1 cells (FIGS. 25-28),[2],significant inhibition of cellular proliferation
same,inhibition of cellular proliferation of MCF-7 cells (FIGS. 21-24),[1],significant inhibition of cellular proliferation
C[C@@H]1CN(c2ccc(Nc3ncc4cc5n(c4n3)C3(CCCCC3)CNC5=O)nc2)C[C@H](C)N1C[C@@H](C)O [MM],inhibition of cellular proliferation of ZR75-1 cells (FIGS. 25-28),[2],significant inhibition of cellular proliferation
same,inhibition of cellular proliferation of MCF-7 cells (FIGS. 21-24),[1],significant inhibition of cellular proliferation
CC1CN(c2ccc(Nc3ncc4cc5n(c4n3)C3(CCCCC3)CNC5=O)nc2)C[C@@H](C)N1CC1CC1 (some centres unmarked) [OO],inhibition of cellular proliferation of ZR75-1 cells (FIGS. 25-28),[2],significant inhibition of cellular proliferation
same,inhibition of cellular proliferation of MCF-7 cells (FIGS. 21-24),[1],significant inhibition of cellular proliferation
CC1CN(c2ccc(Nc3ncc4cc5n(c4n3)C3(CCCC3)CNC5=O)nc2)CCN1CCC(C)(C)C (centres unmarked) [PPP],Fold Selectivity (CDK2/CycA/CDK4),CDK2/CyclinA,3402
same,IC50,CDK2/CyclinA; ATP at Km (50 uM),2640 nM
same,Fold Selectivity (CDK2/CycE/CDK4),CDK2/CyclinE,21263
same,IC50,"CDK2/CyclinE; ATP at Km (100 uM), read-out: CDK2/CycE IC50",16500 nM
same,IC50,CDK4/CyclinD1,0.8 nM
O=C1NCC2(CCCCC2)n2c1cc1cnc(Nc3ccc(N4CCNCC4)cn3)nc12 [Q],inhibition of cellular proliferation of ZR75-1 cells (FIGS. 25-28),[2],significant inhibition of cellular proliferation
same,bioavailability,[3],2%
same,inhibition of cellular proliferation of MCF-7 cells (FIGS. 21-24),[1],significant inhibition of cellular proliferation
same,EdU incorporation into HSPCs at 12 and 24 hours (FIG. 5A),HSPCs (LKS+),some reduction at 12 hours and started to return to baseline at 24 hours
O=C1NCC2(CCCCC2)n2c1cc1cnc(Nc3ccc(N4CCC(N5CCOCC5)CC4)cn3)nc12 [U],inhibition of cellular proliferation of ZR75-1 cells (FIGS. 25-28),[2],significant inhibition of cellular proliferation
same,bioavailability,[3],67%
same,tumor volume during a 28 day course of therapy,[4]; 100 mg/kg/d in chow,marked decrease in tumor volume
same,objective response rate,"[4]; 100 mg/kg/day medicated diet, 28 days, RECIST criteria",100%
same,inhibition of cellular proliferation of MCF-7 cells (FIGS. 21-24),[1],significant inhibition of cellular proliferation
CCC(C)[C@@H]1CNC(=O)c2cc3cnc(Nc4ccc(N5CCNCC5)cn4)nc3n21 (some centres unmarked) [VVV],Fold Selectivity (CDK2/CycE/CDK4),CDK2/CyclinE,589
